Among the test systems are CAKI-1 renal; LXFL 529 NSCLC; KM20L2 colon; DMS 273 small cell lung; DLD-1 colon; HOP-18 NSCLC; SNB-78 CNS; M19-MEL melanoma; DMS 114 small cell lung; XF 498 CNS.
Common to all, as to experiment: NCI anticancer screen, dose series, 48 h

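Values below derive from 48-hour exposures of cells grown in 96-well plates, with endpoints linearly interpolated between the two concentrations bracketing the appropriate inhibition level. TGI marks complete inhibition of growth.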

Data on 38 molecules can be found in PubChem BioAssay (NCI).

Consider `COc1ccc(/C=C(\C(=C/c2ccc(OC)cc2)[N+](=O)[O-])[N+](=O)[O-])cc1`, for which, in the experiment with CAKI-1 renal, the TGI worked out at 8.87 µM.

As for `NS(=O)(=O)c1ccc(Nc2c3ccccc3nc3c(C(=O)NCCCN(CCO)CCO)cccc23)cc1`, in the experiment with CAKI-1 renal, the TGI was more than 100 µM.

Turning to `O=C(OCCN1CCCCC1)C(c1ccccc1)C1(O)CCSCC1` (stereo not given), in the experiment with CAKI-1 renal, the TGI is more than 100 µM.

With `C1#Cc2ccccc2OCCOc2ccccc2C#Cc2ccccc2OCCOc2ccccc21`, the TGI in the experiment with CAKI-1 renal stood at 40.7 µM.

`NC(c1ccccc1)(C(F)(F)F)P1(=O)OC(=O)c2ccccc2O1` (stereo not given) yielded a TGI in the experiment on CAKI-1 renal of more than 100 µM.

`COc1ccc2c(c1)nc1n2C(N)=Nc2ccccc2S1`: the TGI in the experiment on CAKI-1 renal is more than 100 µM.

For the molecule `COC(=O)c1ccccc1C#CCCCOS(C)(=O)=O`, in the experiment on CAKI-1 renal, the TGI was more than 10 µM.

The molecule `C=CC(C)(C)N[C@@H](C(=O)N1CCC[C@H]1c1nc(-c2nc(C(=O)OCC=C(C)C)c(C)o2)c(C)o1)C(C)C` returned a TGI with CAKI-1 renal of more than 100 µM.

`CC(=O)NC1C(OCc2ccccc2)OC(CO)C(O)C1OCC(=O)NC(C)C(=O)NC(CCC(=O)NCCCCCNc1c2ccccc2nc2cccc([N+](=O)[O-])c12)C(N)=O` (stereo not given): in the experiment with CAKI-1 renal, the TGI was less than 0.0001 µM.

Regarding `O=C1CCC2(CC1CCSc1ccccc1)OCCO2` (stereo not given), in the experiment with CAKI-1 renal, the TGI was more than 100 µM.

As for `Nc1ccc(-c2nc3cc(F)ccc3s2)cc1I`, the TGI with CAKI-1 renal amounted to 72.5 µM.

Turning to `O=C(/C=C/c1ccc(-c2ccccc2)cc1)NCc1ccc(C(=O)NCCc2c[nH]c3ccccc23)cc1`, the TGI in the experiment with CAKI-1 renal was determined as 40.7 µM.

Molecule `CC(C)(C)n1c(=O)n(C(=O)C(Cl)(Cl)Cl)n(C(=O)C(Cl)(Cl)Cl)c1=O` showed a TGI with CAKI-1 renal of more than 100 µM.

Molecule `CC(NC1=NCCO1)c1cccc([N+](=O)[O-])c1` (stereo not given) yielded a TGI with CAKI-1 renal of more than 100 µM.

`CCCC(CC)c1c(O)c(O)c(C(CC)CCC)c(C(CC)CCC)c1C(CC)CCC` (stereo not given): the TGI in the experiment with CAKI-1 renal is more than 10 µM.

Consider `CC(=Nc1c2ccccc2nc2ccccc12)N(C)C`, for which the TGI in the experiment on CAKI-1 renal is more than 100 µM.

For `O=C(NNc1cn[nH]c(=O)c1Cl)/C(=C/c1ccc2c(c1)OCO2)NC(=O)c1ccccc1`, in the experiment on CAKI-1 renal, the TGI turned out to be 56.2 µM.

Turning to `COC(=O)c1ccc(CCc2cc(O)ccc2O)cc1`, in the experiment with CAKI-1 renal, the TGI amounted to 12.9 µM.

With `CC(C)[C@H]1NC(=O)[C@H]2N=C(O[C@@H]2C)[C@@H]2CCCN2C(=O)[C@H](Cc2ccccc2)NC(=O)[C@@H]2CSC(=N2)[C@@H](Cc2ccccc2)NC(=O)[C@@H]2CSC1=N2`, the TGI in the experiment with CAKI-1 renal was more than 100 µM.

In the case of `NCCNCCCCCCNC(=O)c1cccc2cc3ccccc3nc12`, the TGI with CAKI-1 renal is 18.5 µM.

The molecule `O=c1[nH]c(=O)n(COCc2ccccc2)c2ccc(Br)cc12` returned a TGI in the experiment with CAKI-1 renal of more than 100 µM.

`C=C(CC(=O)Nc1ccc(C(=O)OC)o1)C(=O)OC` gave a TGI with CAKI-1 renal of 41.9 µM.

With `O=C1CCCC2=C1C(c1ccc3c(c1)OCO3)Nc1ccc3ccccc3c12` (stereo not given), the TGI with CAKI-1 renal is more than 100 µM.

The molecule `O=C1C=C2CO[C@H]3OC[C@H](O)[C@@H]1[C@@H]23` had a TGI with CAKI-1 renal of 89 µM.

Molecule `CCOP(=O)(OCC)/C(=C\N1C(=O)CC(=O)NC1=S)C(=O)OC` yielded a TGI in the experiment with CAKI-1 renal of more than 100 µM.

For the molecule `COc1cccc2c1C1(O)C2CCCC12OCCCO2` (stereo not given), the TGI in the experiment with LXFL 529 NSCLC, in the experiment on KM20L2 colon, in the experiment on DMS 273 small cell lung, in the experiment on DLD-1 colon, in the experiment on HOP-18 NSCLC and in the experiment with SNB-78 CNS was more than 100 µM each time. The TGI with CAKI-1 renal, in the experiment on M19-MEL melanoma and with DMS 114 small cell lung was more than 100 µM in each case.

The molecule `Cc1cc(Nc2ccc(N=Nc3ccc(O)c4ncccc34)cc2)nc(C)n1` showed a TGI with CAKI-1 renal of 71 µM.

With `CC(=O)NC1=C(C)C(=O)c2c(nc3n2CCC3O)C1=O` (stereo not given), the TGI in the experiment with LXFL 529 NSCLC was 41.8 µM; with KM20L2 colon it was more than 100 µM; with DMS 273 small cell lung, more than 100 µM; with DLD-1 colon, more than 100 µM; with HOP-18 NSCLC, more than 100 µM; in the experiment with SNB-78 CNS, 64.4 µM. In addition, the TGI in the experiment on XF 498 CNS was 38.1 µM; in the experiment on CAKI-1 renal, more than 100 µM; in the experiment with M19-MEL melanoma, more than 57.1 µM; with DMS 114 small cell lung it was 21 µM.

In the experiment with CAKI-1 renal, `COc1ccc(/C=C2\CC3C4CC=C5C[C@@H](O)CC[C@]5(C)C4CC[C@]3(C)\C2=N\O)cc1OC` (stereo not given in full) yielded a TGI of more than 100 µM.

For the molecule `CC1CCc2c(sc3ncnc(N/N=C/c4ccc(Cl)c(Cl)c4)c23)C1` (stereo not given), the TGI in the experiment on KM20L2 colon is more than 100 µM; in the experiment with DMS 273 small cell lung it was 39.6 µM; in the experiment on DLD-1 colon it was more than 100 µM; in the experiment on CAKI-1 renal, 56.6 µM; in the experiment on M19-MEL melanoma, 96.2 µM; in the experiment with DMS 114 small cell lung it was 13.3 µM.

For the molecule `Cc1cc(NS(=O)(=O)c2ccc(NC(=O)c3cccc4c(NNc5ccc(S(=O)(=O)N=C(N)N)cc5)c5ccccc5nc34)cc2)no1`, the TGI in the experiment on CAKI-1 renal is more than 100 µM.

`O=c1[nH]c(=O)n(COCc2ccccc2)c2ccc([N+](=O)[O-])cc12`: the TGI with CAKI-1 renal is more than 100 µM.

`O=c1[nH]c2cc3cccnc3c(Cl)c2nc1C(F)(F)F` displayed a TGI with CAKI-1 renal of 65.4 µM.

Turning to `O=c1[nH]c2ccccc2nc1/C=C(\O)C(F)F`, in the experiment on CAKI-1 renal, the TGI is more than 100 µM.

For the molecule `COC(=O)/C=C\C(C#N)(C#N)N=Cc1ccc(C)s1`, the TGI in the experiment on CAKI-1 renal came to 4.78 µM.

The molecule `c1cc(C[S+]2CCCC2)ccc1C[S+]1CCCC1` displayed a TGI with CAKI-1 renal of more than 100 µM.

In the experiment with CAKI-1 renal, `O=C(NC1(C(=O)NNc2nnc(-c3ccccc3)c(-c3ccccc3)n2)C(c2ccccc2)C(c2ccccc2)=NN1c1ccccc1)c1ccccc1` (stereo not given) yielded a TGI of more than 100 µM.

Consider `O=C1CSC2=NCC3(NN12)c1ccccc1-c1ccccc13`, for which the TGI in the experiment on CAKI-1 renal was more than 10 µM.
